In patent US4452793A, “29-Fluorophytosterol termiticides, compositions and methods of use therefor” (The Research Foundation of State University of New York, priority 1983, dated 1984):
Converted amounts (≈) assume the structure as drawn.

Assays:
[1] = tested on: Manduca sexta; experiment: Sterol distribution in experimental hornworms (capillary GC of gut-purged prepupae); format: in vivo, tobacco hornworm (Manduca sexta); conditions: fed at 50 ppm in diet; mean relative area % of GC, 4 hornworms, S.D. in parentheses
Method: (§1) The recrystallized 29-fluorosterols are dissolved in dichloromethane and then coated onto the wheat germ to give a final concentration to 50 ppm (w/v) in the articifical diet. Controls receive either 50 ppm of stigmasterol or no additional sterols. The dose are varied in subsequent experiments. Twenty first instar tobacco hornworms larvae (Manduca sexta, seventh day after egg collection) are then placed on a 0.5-g slab of diet in a 1-oz dish; this is designated as Day 0 of feeding. Larvae were maintained at 65% relative humidity and 26° C. on a 17L/7D long day light regime. Diets are changed and larvae are weighed and staged daily. The mean survival, weight gain, and developmental periods of the experimental hornworms are shown relative to a group of twenty control larvae in FIG. 1.
Four gut-purged prepupae from each experiment are frozen and later are analyzed individually for sterol composition. Each hornworm is homogenized (1:1 chloroform-methanol), the lipids is saponified, and the non-saponifiable lipis are chromatographed to give the sterol fraction. Analysis by capillary GC (Durabon DB-5 or DB-1701) allowed resolution an accurate quantification of cholesterol, desmosterol, campesterol, stiosterol and fucosterol from test insects. The results, present in Table 1, illustrate the insect metabolism.

[2] = tested on: Manduca sexta; experiment: Insecticide bioassay of 29-fluorophytosterols in tobacco hornworm larvae (artificial diet); format: in vivo, tobacco hornworm (Manduca sexta); conditions: for LC50: Manduca sexta, po, 504 h, day 21, read-out: Dose for 50% reduction, survival (larvae, day 21) (LC50); for LC50 / Dose for 50% reduction, maximum larval weight (EC50) / Dose for 50% reduction, pupation (EC50): parts per million (w/v) in the final diet
Method: as §1
Inequality signs indicate that the effect indicated was beyond the range of doses tested and could not be reliably obtained by extrapolation of the log concentration vs. probit response plots. All values are reported as parts per million (w/v) in the final diet.

Row | SMILES | Relative percent sterol: campesterol [1] | Relative percent sterol: cholesterol [1] | Relative percent sterol: desmosterol [1] | Relative percent sterol: sitosterol [1] | LC50 [2] [µg/mL] | Dose for 50% reduction, maximum larval weight (EC50) [2] [ppm] | Dose for 50% reduction, pupation (EC50) [2] [ppm] | Survivors present for analysis ([2]; hornworms fed at 50 ppm)
1 | CC(C)/C(=C/CF)CC[C@@H](C)[C@H]1CC[C@H]2[C@@H]3CC=C4C[C@@H](O)CC[C@]4(C)[C@H]3CC[C@]12C [29-fluorofucosterol] | 10.0(2) % | 82.2(2) % | 1.0(1) % | 5.8(2) % | 48 (≈ 111 µM) | 26 | 31 | –
2 | CC(C)[C@@H](/C=C/[C@@H](C)[C@H]1CC[C@H]2[C@@H]3CC=C4C[C@@H](O)CC[C@]4(C)[C@H]3CC[C@]12C)CCF [29-fluorostigmasterol] | – | – | – | – | 4 (≈ 9.29 µM) | 1 | 1 | No survivors
3 | CC(C)[C@H](/C=C/[C@@H](C)[C@H]1CC[C@H]2[C@@H]3CC=C4C[C@@H](O)CC[C@]4(C)[C@H]3CC[C@]12C)CCF [29-fluoroporiferasterol] | 16.3(2) % | 65.6(8) % | 5.8(2) % | 12.3(5) % | – | – | – | –
4 | CC(C)[C@@H](CCF)CC[C@@H](C)[C@H]1CC[C@H]2[C@@H]3CC=C4C[C@@H](O)CC[C@]4(C)[C@H]3CC[C@]12C [29-fluoroclionosterol] | 9.5(1) % | 82.5(2) % | 2.0(2) % | 5.9(1) % | – | – | – | –
5 | CC(C)[C@H](CCF)CC[C@@H](C)[C@H]1CC[C@H]2[C@@H]3CC=C4C[C@@H](O)CC[C@]4(C)[C@H]3CC[C@]12C [29-fluorositosterol] | 7.8(3) % | 82.4(8) % | 5.2(8) % | 4.6(4) % | 300 (≈ 693 µM) | 110 | 150 | –
